Test results published in paper PMC4222822, “Discovery and Characterization of a Potent and Selective Inhibitor of Aedes aegypti Inward Rectifier Potassium Channels” (PLoS ONE, 2014).

Key:
AeKir2B = AeKir2B (Aedes aegypti, UniProt L0EQ40); experiment: Two-electrode electrophysiology of Xenopus oocytes expressing AeKir2B; assay type: cell-based; conditions: inward current at −140 mV, 95% CI: 31.7–64.2 µM, n = 4–5 oocytes per concentration, read-out: IC50 of AeKir2B current inhibition
Description: AeKir1 and AeKir2B channels were expressed heterologously in Xenopus laevis oocytes as described previously. In brief, defolliculated Xenopus oocytes (purchased from Ecocyte Bioscience, Austin, TX) were injected with 10 ng (0.35 ng/nL) of either AeKir1 or AeKir2B cRNA and cultured for 3–7 days in OR3 media at 18°C. Oocytes injected with 28 nl of nuclease-free H2O served as controls.
All electrophysiological experiments on Xenopus oocytes were performed at room temperature. When present, VU625 was dissolved in solution III or solution V to a final concentration of 0.1, 1, 5, 15, or 50 µM (0.05% DMSO). All solutions were delivered by gravity to a RC-3Z oocyte chamber (Warner Instruments, Hamden, CT) via polyethylene tubing at a flow rate of ∼2 ml/min. Solution changes were made with a Rheodyne Teflon 8-way Rotary valve (Model 5012, Rheodyne, Rohnert Park, CA).
Electrophysiological recordings from oocytes were conducted as described previously In brief, each oocyte was transferred to the holding chamber under superfusion with solution I and impaled with two conventional-glass microelectrodes backfilled with 3 M KCl (resistances of 0.5–1.5 MΩ) to measure membrane potential (Vm) and whole-cell membrane current (Im), respectively. […] All Vm and Im values were recorded by a Digidata 1440A Data Acquisition System (Molecular Devices) and the Clampex module of pCLAMP. […]

Kir2.1 = molecular target: T1, Kir2.1 (Homo sapiens, UniProt P63252); experiment: Tl+ flux selectivity assay, Kir2.1; assay type: cell-based; conditions: n = 2 independent experiments in triplicate, read-out: Inhibition of Tl+ flux (IC50)
T1 construct: expressed in transfected cells
T1 sequence (P63252 1-427): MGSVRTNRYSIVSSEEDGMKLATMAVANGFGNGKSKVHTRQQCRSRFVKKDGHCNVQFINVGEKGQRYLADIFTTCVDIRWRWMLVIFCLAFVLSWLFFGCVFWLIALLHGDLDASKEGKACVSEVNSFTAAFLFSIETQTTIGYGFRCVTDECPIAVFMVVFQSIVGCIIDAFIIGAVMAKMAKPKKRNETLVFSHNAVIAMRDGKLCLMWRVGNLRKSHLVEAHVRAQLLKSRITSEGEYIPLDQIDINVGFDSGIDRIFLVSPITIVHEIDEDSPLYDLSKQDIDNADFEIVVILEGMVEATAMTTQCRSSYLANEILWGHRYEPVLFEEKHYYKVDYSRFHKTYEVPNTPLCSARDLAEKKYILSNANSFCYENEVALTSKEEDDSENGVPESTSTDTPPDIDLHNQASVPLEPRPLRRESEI
Description: [Worded in the source for another target; used here, by the source, with some conditions changed.] Tl^+ flux assays were performed essentially as described previously, [18], [19]. Briefly, stably transfected T-Rex-HEK-293 cells expressing AeKir1 channels were cultured overnight in 384-well plates (20,000 cells/20 µL/well black-walled, clear-bottomed BD PureCoat amine-coated plates (BD, Bedford, MA) with a plating media containing DMEM, 10% dialyzed FBS and 1 µg/mL tetracycline. The next day, the cell culture medium was replaced with a dye-loading solution containing assay buffer (Hanks Balanced Salt Solution with 20 mM HEPES, pH 7.3), 0.01% (w/v) Pluronic F-127 (Life Technologies, Carlsbad, CA), and 1.2 µM of the thallium-sensitive dye Thallos-AM (TEFlabs, Austin, TX). Following 1 hr incubation at room temperature, the dye-loading solution was washed from the plates and replaced with 20 µL/well of assay buffer. […] Tl^+ flux data were analyzed as previously described, [21], [22] using a combination of Excel (Microsoft Corp, Redmond, WA) with XLfit add-in (IDBS, Guildford, Surrey, UK) and OriginPro (OriginLab, Northampton, MA) software. […] The slope of the fluorescence increase beginning 5 s after Tl^+ addition and ending 15 s after Tl^+ addition was calculated.

Sequence of AeKir2B (L0EQ40 entry or part of it): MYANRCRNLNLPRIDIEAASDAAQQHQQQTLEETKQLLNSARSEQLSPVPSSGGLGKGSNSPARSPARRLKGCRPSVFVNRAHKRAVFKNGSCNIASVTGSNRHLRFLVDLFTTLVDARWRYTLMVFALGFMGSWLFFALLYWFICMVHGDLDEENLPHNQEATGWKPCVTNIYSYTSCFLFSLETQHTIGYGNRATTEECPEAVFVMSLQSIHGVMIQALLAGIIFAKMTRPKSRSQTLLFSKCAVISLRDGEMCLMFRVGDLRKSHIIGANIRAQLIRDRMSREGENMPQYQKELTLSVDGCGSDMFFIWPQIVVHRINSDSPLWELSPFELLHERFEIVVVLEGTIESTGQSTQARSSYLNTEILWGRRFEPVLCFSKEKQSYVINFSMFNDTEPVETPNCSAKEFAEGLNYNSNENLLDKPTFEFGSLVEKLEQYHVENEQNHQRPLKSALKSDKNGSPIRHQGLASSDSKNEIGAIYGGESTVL

CCC(=O)N1c2ccc(S(=O)(=O)Nc3cccc(OC)c3)cc2CC1C (centres unmarked) [VU625, N-(3-methoxyphenyl)-2-methyl-1-propionylindoline-5-sulfonamide] gave an IC50 (AeKir2B) of 45.1 µM and an IC50 (Kir2.1) greater than 30 µM.
